In US10941157B2, “Pesticidal compositions and uses thereof” (Gilead Apollo, LLC, priority 2015, dated 2021):
In brackets after ≈: the same amount, converted by molar mass. Read-outs that look alike come from different tables or passages of the source.

How the values were obtained:
Format in all cases: cell-based
Botrtyis cinerea (Bc) = assay: In vitro pathogen growth inhibition assay, Bc; settings: 48 h
Summary of the method: (§1)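 Spores in 17% V8 liquid medium, or 1.5 mm Rs mycelial plugs in ¼ PDB, incubated with compound; final concentration checked by OD600 for precipitation. OD readings at 24 and 48 h, blank-subtracted, plus visual ratings; value is concentration giving ≥90% growth inhibition.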

Diplodia maydis (Dm) = assay: In vitro pathogen growth inhibition assay, Dm; settings: Stenocarpella maydis, 48 h
Summary of the method: (§2)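 Value reported is the compound concentration reaching ≥90% growth inhibition, from OD readings at 24 and 48 h after blank subtraction, confirmed visually. Inoculum was spores diluted in 17% V8 medium, except Rs, using 1.5 mm mycelial plugs in ¼ PDB; actual compound concentration corrected via OD600.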

[1] = tested on: Fusarium moniliforme (Fm); assay: In vitro pathogen growth inhibition assay, Fm; settings: Fusarium verticillioides
Summary of the method: as §1

Septoria tritici (St) = assay: In vitro pathogen growth inhibition assay, St; settings: Zymoseptoria tritici, 48 h
Summary of the method: as §1

Rhizoctonia solani (Rs) = assay: In vitro pathogen growth inhibition assay, Rs (mycelial plugs); settings: Rhizoctonia solani, 48 h
Summary of the method: as §2

[2] = tested on: Collectotrichum graminicola (Cg); assay: In vitro pathogen growth inhibition assay, Cg; settings: 48 h
Summary of the method: as §1

[3] = tested on: Fusarium virguliforme (Fv); assay: In vitro pathogen growth inhibition assay, Fv
Summary of the method: as §2

[4] = tested on: Phytophthora capsici (Pc); assay: In vitro pathogen growth inhibition assay, Pc; settings: 48 h
Summary of the method: as §2

[5] = ≥90% inhibition, 48 hours vs 2% DMSO control, read-out: Compound Concentration (ppm) sufficient for ≥90% inhibition of growth, Bc
[6] = ≥90% inhibition, 48 hours vs 2% DMSO control, read-out: Compound Concentration (ppm) sufficient for ≥90% inhibition of growth, Dm
[7] = ≥90% inhibition, 48 hours vs 2% DMSO control, read-out: Compound Concentration (ppm) sufficient for ≥90% inhibition of growth, Fm
[8] = ≥90% inhibition, 48 hours vs 2% DMSO control, read-out: Compound Concentration (ppm) sufficient for ≥90% inhibition of growth, St
[9] = ≥90% inhibition, mycelial plugs, 48 hours vs 2% DMSO control, read-out: Compound Concentration (ppm) sufficient for ≥90% inhibition of growth, Rs
[10] = ≥90% inhibition, 48 hours vs 2% DMSO control, read-out: Compound Concentration (ppm) sufficient for ≥90% inhibition of growth, Cg
[11] = ≥90% inhibition, 48 hours vs 2% DMSO control, read-out: Compound Concentration (ppm) sufficient for ≥90% inhibition of growth, Fv
[12] = ≥90% inhibition, 48 hours vs 2% DMSO control, read-out: Compound Concentration (ppm) sufficient for ≥90% inhibition of growth, Pc
[13] = ≥90% growth inhibition, 48 hours, vs 2% DMSO control, read-out: Compound Concentration (ppm) sufficient for ≥90% inhibition of Bc
[14] = ≥90% growth inhibition, 48 hours, vs 2% DMSO control, read-out: Compound Concentration (ppm) sufficient for ≥90% inhibition of Dm
[15] = ≥90% growth inhibition, 48 hours, vs 2% DMSO control, read-out: Compound Concentration (ppm) sufficient for ≥90% inhibition of Fm
[16] = ≥90% growth inhibition, 48 hours, vs 2% DMSO control, read-out: Compound Concentration (ppm) sufficient for ≥90% inhibition of St
[17] = ≥90% growth inhibition, mycelial plugs, 48 hours, vs 2% DMSO control, read-out: Compound Concentration (ppm) sufficient for ≥90% inhibition of Rs
[18] = ≥90% growth inhibition, 48 hours, vs 2% DMSO control, read-out: Compound Concentration (ppm) sufficient for ≥90% inhibition of Cg
[19] = ≥90% growth inhibition, 48 hours, vs 2% DMSO control, read-out: Compound Concentration (ppm) sufficient for ≥90% inhibition of Fv
[20] = ≥90% growth inhibition, 48 hours, vs 2% DMSO control, read-out: Compound Concentration (ppm) sufficient for ≥90% inhibition of Pc

Structure (SMILES) | IC90 (Botrtyis cinerea (Bc); [5]) | IC90 (Diplodia maydis (Dm); [6]) | IC90 [1, 7] | IC90 (Septoria tritici (St); [8]) | IC90 (Rhizoctonia solani (Rs); [9]) | IC90 [2, 10] | IC90 [3, 11] | IC90 [4, 12] | further results
COc1ccccc1[C@H](Cn1c(=O)n(C(C)(C)C(=O)NC(C)C)c(=O)c2c(C)c(-n3nccn3)sc21)OC1CCOCC1 [Compound I-029] | 0.4 µg/mL (≈ 0.655 µM) | ≥ 2 µg/mL | 0.08 µg/mL (≈ 0.131 µM) | > 10 µg/mL | 0.4 µg/mL (≈ 0.655 µM) | ≥ 2 µg/mL | 0.4 µg/mL (≈ 0.655 µM) | 50 µg/mL (≈ 81.9 µM) | –
CCOC(=O)c1sc2c(c1C)c(=O)n(C(C)(C)C(=O)NC(C)C)c(=O)n2C[C@H](OCC(C)(C)C#N)c1cc(F)ccc1OC [Compound I-321] | – | – | – | – | – | – | – | – | IC90 (Botrtyis cinerea (Bc); [13]): 0.4 µg/mL (≈ 0.634 µM); IC90 (Diplodia maydis (Dm); [14]): ≥ 0.4 µg/mL; IC90 [1, 15]: 0.08 µg/mL (≈ 0.127 µM); IC90 (Septoria tritici (St); [16]): > 50 µg/mL; IC90 (Rhizoctonia solani (Rs); [17]): 2 µg/mL (≈ 3.17 µM); IC90 [2, 18]: 0.4 µg/mL (≈ 0.634 µM); IC90 [3, 19]: 0.4 µg/mL (≈ 0.634 µM); IC90 [4, 20]: > 50 µg/mL
COc1ccc(F)cc1[C@H](Cn1c(=O)n(C(C)(C)C(=O)N2CCCCC2)c(=O)c2c(C)c(-n3nccn3)sc21)OC1CCC(=O)CC1 [Compound I-052] | 0.4 µg/mL (≈ 0.6 µM) | 2 µg/mL (≈ 3 µM) | 0.08 µg/mL (≈ 0.12 µM) | > 50 µg/mL | 2 µg/mL (≈ 3 µM) | ≥ 0.4 µg/mL | 0.4 µg/mL (≈ 0.6 µM) | > 50 µg/mL | –
COc1ccc(F)cc1[C@H](Cn1c(=O)n(C(C)(C)C(=O)NC2CCCCC2)c(=O)c2c(C)c(-n3nccn3)sc21)OC1CCOCC1 [Compound I-039] | 0.4 µg/mL (≈ 0.598 µM) | 0.4 µg/mL (≈ 0.598 µM) | 0.08 µg/mL (≈ 0.12 µM) | ≥ 2 µg/mL | 0.4 µg/mL (≈ 0.598 µM) | 2 µg/mL (≈ 2.99 µM) | 0.4 µg/mL (≈ 0.598 µM) | > 50 µg/mL | –
COc1ccc(F)cc1[C@H](Cn1c(=O)n(C(C)(C)C(=O)NC(C)C)c(=O)c2c(C)c(-n3cccn3)sc21)OC[C@@H](C)O [Compound I-134] | 2 µg/mL (≈ 3.32 µM) | ≥ 2 µg/mL | 0.4 µg/mL (≈ 0.665 µM) | ≥ 10 µg/mL | ≥ 0.4 µg/mL | 0.4 µg/mL (≈ 0.665 µM) | 2 µg/mL (≈ 3.32 µM) | ≥ 10 µg/mL | –
COc1ccccc1[C@H](Cn1c(=O)n(C(C)(C)C(N)=O)c(=O)c2c(C)c(-n3nccn3)sc21)OC1CCOCC1 [Compound I-031] | 2 µg/mL (≈ 3.52 µM) | 10 µg/mL (≈ 17.6 µM) | 0.08 µg/mL (≈ 0.141 µM) | > 50 µg/mL | 10 µg/mL (≈ 17.6 µM) | 10 µg/mL (≈ 17.6 µM) | 10 µg/mL (≈ 17.6 µM) | > 50 µg/mL | –
COc1ccc(F)cc1[C@H](Cn1c(=O)n(C(C)(C)C(=O)N2CCCC2)c(=O)c2c(C)c(-n3cccn3)sc21)OCCO [Compound I-159] | 10 µg/mL (≈ 16.7 µM) | ≥ 50 µg/mL | 2 µg/mL (≈ 3.34 µM) | > 50 µg/mL | ≥ 10 µg/mL | ≥ 10 µg/mL | 2 µg/mL (≈ 3.34 µM) | > 50 µg/mL | –
CCOC(=O)c1sc2c(c1C)c(=O)n([C@H](C)C(=O)N1CCCC1)c(=O)n2C[C@H](OCCC#N)c1cc(F)ccc1OC [Compound I-226] | – | – | – | – | – | – | – | – | IC90 (Botrtyis cinerea (Bc); [13]): 2 µg/mL (≈ 3.33 µM); IC90 (Diplodia maydis (Dm); [14]): ≥ 2 µg/mL; IC90 [1, 15]: 0.08 µg/mL (≈ 0.133 µM); IC90 (Septoria tritici (St); [16]): > 50 µg/mL; IC90 (Rhizoctonia solani (Rs); [17]): 0.08 µg/mL (≈ 0.133 µM); IC90 [2, 18]: 2 µg/mL (≈ 3.33 µM); IC90 [3, 19]: 2 µg/mL (≈ 3.33 µM); IC90 [4, 20]: > 50 µg/mL
COc1ccc(F)cc1[C@](O)(CCO)Cn1c(=O)n(C(C)(C)C(=O)NC(C)C)c(=O)c2c(C)c(-n3nccn3)sc21 [Compound I-275] | – | – | – | – | – | – | – | – | IC90 (Botrtyis cinerea (Bc); concentration sufficient to ≥90% inhibition of growth, 48 hours vs 2% DMSO control, read-out: Compound Concentration (ppm) for ≥90% inhibition, Bc): 50 µg/mL (≈ 84.9 µM); IC90 (Diplodia maydis (Dm); concentration sufficient to ≥90% inhibition of growth, 48 hours vs 2% DMSO control, read-out: Compound Concentration (ppm) for ≥90% inhibition, Dm): > 50 µg/mL; IC90 ([1]; concentration sufficient to ≥90% inhibition of growth, 48 hours vs 2% DMSO control, read-out: Compound Concentration (ppm) for ≥90% inhibition, Fm): 50 µg/mL (≈ 84.9 µM); IC90 (Septoria tritici (St); concentration sufficient to ≥90% inhibition of growth, 48 hours vs 2% DMSO control, read-out: Compound Concentration (ppm) for ≥90% inhibition, St): > 50 µg/mL; IC90 (Rhizoctonia solani (Rs); concentration sufficient to ≥90% inhibition of growth, 48 hours vs 2% DMSO control, read-out: Compound Concentration (ppm) for ≥90% inhibition, Rs): 50 µg/mL (≈ 84.9 µM); IC90 ([2]; concentration sufficient to ≥90% inhibition of growth, 48 hours vs 2% DMSO control, read-out: Compound Concentration (ppm) for ≥90% inhibition, Cg): 50 µg/mL (≈ 84.9 µM); IC90 ([3]; concentration sufficient to ≥90% inhibition of growth, 48 hours vs 2% DMSO control, read-out: Compound Concentration (ppm) for ≥90% inhibition, Fv): > 50 µg/mL; IC90 ([4]; concentration sufficient to ≥90% inhibition of growth, 48 hours vs 2% DMSO control, read-out: Compound Concentration (ppm) for ≥90% inhibition, Pc): > 50 µg/mL
CCO[C@@H](Cn1c(=O)n(C(C)(C)C(=O)N2CCCC2)c(=O)c2c(C)c(-n3cccn3)sc21)c1cc(F)ccc1OC [Compound I-053] | 0.4 µg/mL (≈ 0.685 µM) | ≥ 2 µg/mL | 0.08 µg/mL (≈ 0.137 µM) | ≥ 50 µg/mL | 2 µg/mL (≈ 3.43 µM) | 2 µg/mL (≈ 3.43 µM) | 0.4 µg/mL (≈ 0.685 µM) | > 50 µg/mL | –
